Test results reported in PMC11345841, “Exploring 2-Sulfonylpyrimidine Warheads as Acrylamide Surrogates for Targeted Covalent Inhibition: A BTK Story” (Journal of Medicinal Chemistry, 2024).
Read-outs that look alike come from different tables or passages of the source.

Experiments:
EGFR(S752-I759del) = biological target: T1, EGFR(S752-I759del) (Homo sapiens, UniProt P00533, DEL752-759); assay: KINOMEscan ScanTK; assay type: binding
T1 construct: purchased Eurofins DiscoverX KINOMEscan (scanTK)

BRK = biological target: T2, BRK (Homo sapiens, UniProt Q13882); assay: KINOMEscan ScanTK; assay type: binding
T2 construct: purchased Eurofins DiscoverX KINOMEscan (scanTK)

VEGFR2 = biological target: T3, VEGFR2 (Homo sapiens, UniProt P35968); assay: KINOMEscan ScanTK; assay type: binding
T3 construct: purchased Eurofins DiscoverX KINOMEscan (scanTK)

PDGFRB = biological target: T4, PDGFRB (Homo sapiens, UniProt P09619); assay: KINOMEscan ScanTK; assay type: binding
T4 construct: purchased Eurofins DiscoverX KINOMEscan (scanTK)

[1] = biological target: T5, ABL1(H396P)-nonphosphorylated (Homo sapiens, UniProt P00519, H396P); assay: KINOMEscan ScanTK; assay type: binding
T5 construct: purchased Eurofins DiscoverX KINOMEscan (scanTK)

KIT(D816V) = biological target: T6, KIT(D816V) (Homo sapiens, UniProt P10721, D816V); assay: KINOMEscan ScanTK; assay type: binding
T6 construct: purchased Eurofins DiscoverX KINOMEscan (scanTK)

ALK = biological target: T7, ALK (Homo sapiens, UniProt Q9UM73); assay: KINOMEscan ScanTK; assay type: binding
T7 construct: purchased Eurofins DiscoverX KINOMEscan (scanTK)

FYN = biological target: T8, FYN (Homo sapiens, UniProt P06241); assay: KINOMEscan ScanTK; assay type: binding
T8 construct: purchased Eurofins DiscoverX KINOMEscan (scanTK)

EPHB2 = biological target: T9, EPHB2 (Homo sapiens, UniProt P29323); assay: KINOMEscan ScanTK; assay type: binding
T9 construct: purchased Eurofins DiscoverX KINOMEscan (scanTK)
T9 sequence (P29323 19-1055): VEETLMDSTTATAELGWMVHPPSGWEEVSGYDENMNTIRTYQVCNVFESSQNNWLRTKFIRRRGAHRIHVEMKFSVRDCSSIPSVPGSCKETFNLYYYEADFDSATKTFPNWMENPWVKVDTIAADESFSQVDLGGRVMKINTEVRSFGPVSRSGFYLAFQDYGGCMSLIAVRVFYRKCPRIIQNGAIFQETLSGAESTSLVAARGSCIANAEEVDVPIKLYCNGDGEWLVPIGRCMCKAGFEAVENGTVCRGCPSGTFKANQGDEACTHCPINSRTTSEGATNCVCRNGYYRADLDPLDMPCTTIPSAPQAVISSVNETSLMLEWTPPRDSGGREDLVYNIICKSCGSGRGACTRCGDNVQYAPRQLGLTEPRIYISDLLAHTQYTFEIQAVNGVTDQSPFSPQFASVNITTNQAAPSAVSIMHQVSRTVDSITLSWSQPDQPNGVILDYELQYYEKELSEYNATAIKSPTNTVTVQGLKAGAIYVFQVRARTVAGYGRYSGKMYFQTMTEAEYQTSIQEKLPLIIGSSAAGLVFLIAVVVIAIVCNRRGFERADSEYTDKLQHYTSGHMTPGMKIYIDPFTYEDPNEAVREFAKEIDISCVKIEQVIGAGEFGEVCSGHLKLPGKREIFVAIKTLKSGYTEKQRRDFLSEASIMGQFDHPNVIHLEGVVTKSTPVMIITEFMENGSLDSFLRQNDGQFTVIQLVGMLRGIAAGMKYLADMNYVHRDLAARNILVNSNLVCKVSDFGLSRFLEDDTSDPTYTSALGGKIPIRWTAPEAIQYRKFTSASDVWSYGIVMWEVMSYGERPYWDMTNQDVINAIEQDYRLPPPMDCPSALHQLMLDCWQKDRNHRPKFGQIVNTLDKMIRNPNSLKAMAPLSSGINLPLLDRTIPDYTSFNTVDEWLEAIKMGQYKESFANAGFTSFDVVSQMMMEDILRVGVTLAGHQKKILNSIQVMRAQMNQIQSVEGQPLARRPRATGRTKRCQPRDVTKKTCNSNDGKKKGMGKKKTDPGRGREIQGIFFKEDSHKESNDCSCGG

TMD8 cells = assay: RNA-seq gene expression; conditions: TMD8, 1 μM, 8 h
BTK = biological target: T10, BTK (Homo sapiens, UniProt Q06187); assay: KINOMEscan ScanTK; assay type: binding; conditions: for remaining binding at 1 µM: BTK
T10 construct: purchased Eurofins DiscoverX KINOMEscan (scanTK)

TIE2 = biological target: T11, TIE2 (Homo sapiens, UniProt Q02763); assay: KINOMEscan ScanTK; assay type: binding
T11 construct: purchased Eurofins DiscoverX KINOMEscan (scanTK)

[2] = biological target: T12, ABL1(Y253F)-phosphorylated (Homo sapiens, UniProt P00519, Y253F); assay: KINOMEscan ScanTK; assay type: binding
T12 construct: purchased Eurofins DiscoverX KINOMEscan (scanTK)

T7 sequence (Q9UM73 19-1620): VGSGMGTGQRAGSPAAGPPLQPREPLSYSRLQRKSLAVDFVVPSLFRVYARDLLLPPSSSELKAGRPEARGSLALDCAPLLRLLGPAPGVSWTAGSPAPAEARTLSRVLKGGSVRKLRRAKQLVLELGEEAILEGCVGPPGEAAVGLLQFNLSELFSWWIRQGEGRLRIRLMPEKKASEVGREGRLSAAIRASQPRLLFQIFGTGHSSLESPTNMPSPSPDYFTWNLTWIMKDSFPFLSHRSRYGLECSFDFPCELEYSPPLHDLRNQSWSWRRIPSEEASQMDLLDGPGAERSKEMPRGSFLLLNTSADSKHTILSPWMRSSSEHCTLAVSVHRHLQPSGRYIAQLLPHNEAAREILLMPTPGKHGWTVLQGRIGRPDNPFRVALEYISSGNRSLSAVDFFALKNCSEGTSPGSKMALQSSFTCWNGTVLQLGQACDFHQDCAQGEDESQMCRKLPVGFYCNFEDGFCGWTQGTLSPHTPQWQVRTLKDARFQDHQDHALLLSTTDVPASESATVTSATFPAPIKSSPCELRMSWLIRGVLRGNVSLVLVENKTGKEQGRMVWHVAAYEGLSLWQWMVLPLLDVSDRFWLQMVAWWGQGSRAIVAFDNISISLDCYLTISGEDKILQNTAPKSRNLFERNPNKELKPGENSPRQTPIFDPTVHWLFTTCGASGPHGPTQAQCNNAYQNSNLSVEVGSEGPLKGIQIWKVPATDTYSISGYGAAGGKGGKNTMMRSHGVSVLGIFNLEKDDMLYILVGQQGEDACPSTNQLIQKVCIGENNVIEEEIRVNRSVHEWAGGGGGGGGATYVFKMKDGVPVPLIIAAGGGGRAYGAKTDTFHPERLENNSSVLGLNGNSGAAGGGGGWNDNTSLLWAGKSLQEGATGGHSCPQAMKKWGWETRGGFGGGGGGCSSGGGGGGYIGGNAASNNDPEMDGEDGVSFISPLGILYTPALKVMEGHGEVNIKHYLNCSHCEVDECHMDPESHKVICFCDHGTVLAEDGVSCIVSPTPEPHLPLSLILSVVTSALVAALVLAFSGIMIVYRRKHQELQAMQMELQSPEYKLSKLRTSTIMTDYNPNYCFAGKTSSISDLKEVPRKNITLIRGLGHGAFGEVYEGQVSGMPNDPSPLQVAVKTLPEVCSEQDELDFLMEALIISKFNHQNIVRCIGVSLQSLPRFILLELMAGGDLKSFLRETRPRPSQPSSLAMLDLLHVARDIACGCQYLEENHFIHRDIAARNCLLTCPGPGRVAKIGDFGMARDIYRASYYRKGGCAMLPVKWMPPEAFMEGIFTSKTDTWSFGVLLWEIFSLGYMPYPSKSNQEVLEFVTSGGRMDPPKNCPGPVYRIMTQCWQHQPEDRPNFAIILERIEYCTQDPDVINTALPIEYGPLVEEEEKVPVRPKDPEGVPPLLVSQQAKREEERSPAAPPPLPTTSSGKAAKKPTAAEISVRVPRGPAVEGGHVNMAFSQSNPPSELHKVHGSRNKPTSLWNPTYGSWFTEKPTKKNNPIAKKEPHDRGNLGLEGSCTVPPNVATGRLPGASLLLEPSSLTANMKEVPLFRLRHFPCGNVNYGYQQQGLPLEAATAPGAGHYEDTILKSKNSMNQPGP
T1 sequence (P00533 with tags, fused parts or gaps DEL752-759 limits assumed): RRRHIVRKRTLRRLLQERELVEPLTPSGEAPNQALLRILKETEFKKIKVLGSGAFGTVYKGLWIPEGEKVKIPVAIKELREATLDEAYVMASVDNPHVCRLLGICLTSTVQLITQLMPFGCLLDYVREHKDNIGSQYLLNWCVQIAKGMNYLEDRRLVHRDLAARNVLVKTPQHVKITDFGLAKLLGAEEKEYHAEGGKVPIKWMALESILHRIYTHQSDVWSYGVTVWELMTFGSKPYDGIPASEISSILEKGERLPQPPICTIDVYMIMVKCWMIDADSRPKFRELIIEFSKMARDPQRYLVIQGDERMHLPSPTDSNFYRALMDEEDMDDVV
T2 sequence (Q13882 whole entry): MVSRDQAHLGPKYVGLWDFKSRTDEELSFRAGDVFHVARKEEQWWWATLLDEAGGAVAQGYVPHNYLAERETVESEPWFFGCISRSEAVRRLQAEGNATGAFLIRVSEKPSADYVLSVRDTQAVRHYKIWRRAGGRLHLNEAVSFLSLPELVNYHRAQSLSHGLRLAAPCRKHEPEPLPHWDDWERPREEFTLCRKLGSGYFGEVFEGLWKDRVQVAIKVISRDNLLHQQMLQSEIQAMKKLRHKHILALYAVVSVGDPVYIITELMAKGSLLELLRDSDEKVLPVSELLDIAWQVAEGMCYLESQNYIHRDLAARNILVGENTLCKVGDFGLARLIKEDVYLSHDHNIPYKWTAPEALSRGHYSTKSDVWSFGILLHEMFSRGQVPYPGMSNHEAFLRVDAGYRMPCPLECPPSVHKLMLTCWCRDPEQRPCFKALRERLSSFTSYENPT
T8 sequence (P06241 whole entry): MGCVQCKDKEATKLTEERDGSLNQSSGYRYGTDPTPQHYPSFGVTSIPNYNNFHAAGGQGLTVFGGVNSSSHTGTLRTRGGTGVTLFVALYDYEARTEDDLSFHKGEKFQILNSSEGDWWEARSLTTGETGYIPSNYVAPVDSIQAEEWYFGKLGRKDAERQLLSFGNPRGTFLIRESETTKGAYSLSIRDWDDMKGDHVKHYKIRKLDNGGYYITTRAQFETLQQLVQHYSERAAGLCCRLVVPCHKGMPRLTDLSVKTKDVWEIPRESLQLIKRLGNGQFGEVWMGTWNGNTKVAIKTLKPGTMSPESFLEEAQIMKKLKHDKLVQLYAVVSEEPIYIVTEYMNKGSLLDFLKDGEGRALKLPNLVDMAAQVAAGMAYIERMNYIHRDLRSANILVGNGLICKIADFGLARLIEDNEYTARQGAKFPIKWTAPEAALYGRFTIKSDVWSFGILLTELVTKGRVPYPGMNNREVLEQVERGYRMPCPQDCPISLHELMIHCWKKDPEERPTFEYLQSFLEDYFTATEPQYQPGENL
T10 sequence (Q06187 whole entry): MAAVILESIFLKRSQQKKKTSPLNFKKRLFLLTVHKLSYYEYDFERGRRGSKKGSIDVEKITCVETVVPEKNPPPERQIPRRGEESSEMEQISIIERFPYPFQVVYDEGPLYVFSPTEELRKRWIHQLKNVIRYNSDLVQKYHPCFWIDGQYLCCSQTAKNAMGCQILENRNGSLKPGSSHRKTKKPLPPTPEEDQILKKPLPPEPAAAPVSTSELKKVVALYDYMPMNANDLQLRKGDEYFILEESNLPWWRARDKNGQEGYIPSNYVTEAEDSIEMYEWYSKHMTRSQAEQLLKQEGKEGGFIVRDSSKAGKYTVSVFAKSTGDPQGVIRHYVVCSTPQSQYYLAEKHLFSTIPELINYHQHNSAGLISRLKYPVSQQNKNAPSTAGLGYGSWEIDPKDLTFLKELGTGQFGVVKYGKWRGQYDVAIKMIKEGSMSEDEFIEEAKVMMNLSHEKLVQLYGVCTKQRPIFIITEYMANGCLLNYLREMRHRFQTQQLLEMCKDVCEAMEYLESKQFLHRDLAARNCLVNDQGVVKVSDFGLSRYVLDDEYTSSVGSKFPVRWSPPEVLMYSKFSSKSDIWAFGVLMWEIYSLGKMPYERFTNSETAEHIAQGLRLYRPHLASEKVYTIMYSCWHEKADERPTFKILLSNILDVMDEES
T3 sequence (P35968 20-1356): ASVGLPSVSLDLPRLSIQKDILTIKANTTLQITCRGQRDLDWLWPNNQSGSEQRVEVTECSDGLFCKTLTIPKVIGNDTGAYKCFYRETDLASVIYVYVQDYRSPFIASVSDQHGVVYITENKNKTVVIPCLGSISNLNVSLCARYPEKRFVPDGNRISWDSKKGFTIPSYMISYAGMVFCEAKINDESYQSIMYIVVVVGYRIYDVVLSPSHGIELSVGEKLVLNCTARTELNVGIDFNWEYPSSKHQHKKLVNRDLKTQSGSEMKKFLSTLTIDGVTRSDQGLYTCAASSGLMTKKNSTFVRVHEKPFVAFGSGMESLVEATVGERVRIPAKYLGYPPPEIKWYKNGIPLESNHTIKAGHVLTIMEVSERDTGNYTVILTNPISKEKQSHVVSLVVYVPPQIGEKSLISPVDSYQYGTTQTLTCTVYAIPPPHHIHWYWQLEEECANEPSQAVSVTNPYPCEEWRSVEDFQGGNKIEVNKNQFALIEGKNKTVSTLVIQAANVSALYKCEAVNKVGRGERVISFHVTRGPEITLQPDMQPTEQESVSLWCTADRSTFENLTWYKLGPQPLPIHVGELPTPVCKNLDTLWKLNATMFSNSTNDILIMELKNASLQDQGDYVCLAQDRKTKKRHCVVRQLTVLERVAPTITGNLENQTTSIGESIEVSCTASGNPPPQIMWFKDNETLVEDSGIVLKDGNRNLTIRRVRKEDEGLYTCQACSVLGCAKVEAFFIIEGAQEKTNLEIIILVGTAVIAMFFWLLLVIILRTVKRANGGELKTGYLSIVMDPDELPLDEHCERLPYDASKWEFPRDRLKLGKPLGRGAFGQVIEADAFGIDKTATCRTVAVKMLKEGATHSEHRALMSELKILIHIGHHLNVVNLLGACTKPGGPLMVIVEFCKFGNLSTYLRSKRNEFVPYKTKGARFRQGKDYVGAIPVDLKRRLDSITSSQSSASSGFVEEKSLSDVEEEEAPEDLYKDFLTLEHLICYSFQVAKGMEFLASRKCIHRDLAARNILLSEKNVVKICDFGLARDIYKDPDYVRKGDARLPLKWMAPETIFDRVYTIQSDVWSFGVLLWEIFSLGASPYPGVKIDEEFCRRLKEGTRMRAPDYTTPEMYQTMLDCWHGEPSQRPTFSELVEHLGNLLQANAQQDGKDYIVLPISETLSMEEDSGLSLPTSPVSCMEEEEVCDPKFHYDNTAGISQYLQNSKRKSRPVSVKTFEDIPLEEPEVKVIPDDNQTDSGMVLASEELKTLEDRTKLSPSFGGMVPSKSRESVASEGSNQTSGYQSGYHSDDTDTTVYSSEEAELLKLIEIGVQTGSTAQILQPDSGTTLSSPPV

SMILES: CCOC(=O)c1cnc(S(C)(=O)=O)nc1N1CCC[C@@H](n2nc(-c3ccc(Oc4ccccc4)cc3)c3c(N)ncnc32)C1 [Compound 8c, Ethyl (R)-4-(3-(4-Amino-3-(4-phenoxyphenyl)-1H-pyrazolo[3,4-d]pyrimidin-1-yl)piperidin-1-yl)-2-(methylsulfonyl)pyrimidine-5-carboxylate]
- difference in %Control versus compound Ib at 1 µM (EGFR(S752-I759del); @1000nM): 98%
- remaining binding at 1 µM (EGFR(S752-I759del); @1000nM, read-out: %Control): 100%
- remaining binding at 1 µM (EGFR(S752-I759del); read-out: %Control @1000nM): 100%
- difference in %Control relative to compound Ib at 1 µM (BRK; @1000nM): 52.7%
- remaining binding at 1 µM (BRK; @1000nM, read-out: %Control): 54%
- remaining binding at 1 µM (BRK; read-out: %Control @1000nM): 54%
- remaining binding at 1 µM (VEGFR2; @1000nM, read-out: %Control): 94%
- remaining binding at 1 µM (VEGFR2; read-out: %Control @1000nM): 94%
- remaining binding at 1 µM (PDGFRB; @1000nM, read-out: %Control): 87%
- remaining binding at 1 µM (PDGFRB; read-out: %Control @1000nM): 87%
- difference in %Control versus compound Ib at 1 µM ([1]; @1000nM): 41%
- remaining binding at 1 µM ([1]; @1000nM, read-out: %Control): 55%
- remaining binding at 1 µM ([1]; read-out: %Control @1000nM): 55%
- remaining binding at 1 µM (KIT(D816V); @1000nM, read-out: %Control): 85%
- remaining binding at 1 µM (KIT(D816V); read-out: %Control @1000nM): 85%
- difference in %Control versus compound Ib at 1 µM (ALK; @1000nM): -25%
- remaining binding at 1 µM (ALK; @1000nM, read-out: %Control): 69%
- remaining binding at 1 µM (ALK; read-out: %Control @1000nM): 69%
- difference in % of control versus compound Ib at 1 µM (FYN; @1000nM): 30.4%
- remaining binding at 1 µM (FYN; @1000nM, read-out: %Control): 40%
- remaining binding at 1 µM (FYN; read-out: %Control @1000nM): 40%
- %Control difference from compound Ib at 1 µM (EPHB2; @1000nM): -2%
- remaining binding at 1 µM (EPHB2; @1000nM, read-out: %Control): 98%
- remaining binding at 1 µM (EPHB2; read-out: %Control @1000nM): 98%
- number of genes unchanged vs DMSO (TMD8 cells): 15047 genes
- number of genes reduced vs DMSO (TMD8 cells; FDR < 0.01, log2FC < -0.5): 0 genes
- number of genes increased vs DMSO (TMD8 cells; FDR < 0.01, log2FC > 0.5): 0 genes
- remaining binding at 1 µM (BTK; @1000nM, read-out: % difference (compound - Ib %Control)): 18%
- remaining binding at 1 µM (BTK; @1000nM, read-out: %Control): 18%
- remaining binding at 1 µM (BTK; read-out: %Control @1000nM): 18%
- inhibition at 1 µM (BTK; ScanTK, 1 μM): 82%
- remaining binding at 1 µM (TIE2; @1000nM, read-out: %Control): 90%
- remaining binding at 1 µM (TIE2; read-out: %Control @1000nM): 90%
- difference in %Control from compound Ib at 1 µM ([2]; @1000nM): 4%
- remaining binding at 1 µM ([2]; @1000nM, read-out: %Control): 81%
- remaining binding at 1 µM ([2]; read-out: %Control @1000nM): 81%
